Toxic doses and inconclusive results are not listed. No stated cut-off is given here; in the data, active means T/C of 150% or more; inactive means T/C below 125%.
Test system: L1210 leukemia ip in BDF1 mice, survival T/C
Assay: NCI In Vivo Anticancer Drug Screen. Data for tumor model L1210 Leukemia (intraperitoneal) in B6D2F1 (BDF1) mice
Details: endpoint: mean survival time, higher = longer survival
Outline: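 In this screen, tumor-bearing mice given compound are compared to those given vehicle, and their survival values are reported as a treated-to-control quotient.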

[1] = dose: 50.0 mg/kg/injection, schedule: Q01DX001 (ip), vehicle: saline
[2] = dose: 100.0 mg/kg/injection, schedule: Q01DX001 (ip), vehicle: saline
[3] = dose: 100.0 mg/kg/injection, schedule: Q04DX003 (ip), vehicle: Klucel (hydroxypropylcellulose) (HPC)
[4] = dose: 200.0 mg/kg/injection, schedule: Q04DX003 (ip), vehicle: Klucel (hydroxypropylcellulose) (HPC)
[5] = dose: 400.0 mg/kg/injection, schedule: Q04DX003 (ip), vehicle: Klucel (hydroxypropylcellulose) (HPC)
[6] = dose: 100.0 mg/kg/injection, schedule: Q01DX009 (ip), vehicle: Klucel (hydroxypropylcellulose) (HPC)
[7] = dose: 200.0 mg/kg/injection, schedule: Q01DX009 (ip), vehicle: Klucel (hydroxypropylcellulose) (HPC)
[8] = dose: 100.0 mg/kg/injection, schedule: Q01DX001 (ip), vehicle: Klucel (hydroxypropylcellulose) (HPC)
[9] = dose: 200.0 mg/kg/injection, schedule: Q01DX001 (ip), vehicle: Klucel (hydroxypropylcellulose) (HPC)
[10] = dose: 400.0 mg/kg/injection, schedule: Q01DX001 (ip), vehicle: Klucel (hydroxypropylcellulose) (HPC)
[11] = dose: 400.0 mg/kg/injection, schedule: Q01DX009 (ip), vehicle: Klucel (hydroxypropylcellulose) (HPC)
[12] = dose: 100.0 mg/kg/injection, schedule: Q04DX003 (ip), vehicle: saline with Tween-80
[13] = dose: 200.0 mg/kg/injection, schedule: Q04DX003 (ip), vehicle: saline with Tween-80
[14] = dose: 400.0 mg/kg/injection, schedule: Q04DX003 (ip), vehicle: saline with Tween-80

Measured: T/C

COC(=O)C1CC23C=CCN4CC(C2C)C2(c5ccccc5NC12)C43 (stereo not drawn)
inactive: dose: 0.03 mg/kg/injection, schedule: Q01DX001 (ip), vehicle: saline 101 % of control | dose: 0.06 mg/kg/injection, schedule: Q01DX001 (ip), vehicle: saline 98 % of control | dose: 0.13 mg/kg/injection, schedule: Q01DX001 (ip), vehicle: saline 93 % of control | dose: 0.25 mg/kg/injection, schedule: Q01DX001 (ip), vehicle: saline 101 % of control | dose: 0.5 mg/kg/injection, schedule: Q01DX001 (ip), vehicle: saline 97 % of control | dose: 1.0 mg/kg/injection, schedule: Q01DX001 (ip), vehicle: saline 97 % of control | dose: 2.0 mg/kg/injection, schedule: Q01DX001 (ip), vehicle: saline 98 % of control | dose: 25.0 mg/kg/injection, schedule: Q01DX001 (ip), vehicle: saline 101 % of control | [1] 95 % of control | [2] 101 % of control

NC(=S)NNC=O
inactive: [3] 95 % of control | [4] 92 % of control | [5] 100 % of control

COc1ccc(Cl)cc1NC(=O)COc1cc(Cl)c(Cl)cc1Cl
inactive: dose: 50.0 mg/kg/injection, schedule: Q01DX009 (ip), vehicle: saline with Tween-80 101 % of control | dose: 100.0 mg/kg/injection, schedule: Q01DX009 (ip), vehicle: saline with Tween-80 96 % of control | dose: 200.0 mg/kg/injection, schedule: Q01DX009 (ip), vehicle: saline with Tween-80 104 % of control

CNCC(C)CN1CCCCCc2ccccc21 (stereo not drawn)
inactive: dose: 3.12 mg/kg/injection, schedule: Q01DX009 (ip), vehicle: saline 100 % of control | dose: 6.25 mg/kg/injection, schedule: Q01DX009 (ip), vehicle: saline 93 % of control | dose: 12.5 mg/kg/injection, schedule: Q01DX009 (ip), vehicle: saline 100 % of control | dose: 25.0 mg/kg/injection, schedule: Q01DX009 (ip), vehicle: saline 97 % of control | dose: 50.0 mg/kg/injection, schedule: Q01DX009 (ip), vehicle: saline 104 % of control

CC1(C)CCOC(C2OCCC(C)(C)O2)O1 (stereo not drawn)
inactive: dose: 50.0 mg/kg/injection, schedule: Q01DX009 (ip), vehicle: acetone 113 % of control | dose: 100.0 mg/kg/injection, schedule: Q01DX009 (ip), vehicle: acetone 93 % of control | dose: 200.0 mg/kg/injection, schedule: Q01DX009 (ip), vehicle: acetone 98 % of control

CCNc1nc(C)c2nc(C(=O)OCC)c(=O)[nH]c2n1
inactive: dose: 50.0 mg/kg/injection, schedule: Q01DX009 (ip), vehicle: Klucel (hydroxypropylcellulose) (HPC) 95 % of control | [6] 95 % of control | [7] 98 % of control

COc1cc(N=Nc2ccc([N+](=O)[O-])cc2C)ccc1N
inactive: dose: 100.0 mg/kg/injection, schedule: Q01DX001 (ip), vehicle: other 97 % of control | dose: 200.0 mg/kg/injection, schedule: Q01DX001 (ip), vehicle: other 97 % of control | dose: 400.0 mg/kg/injection, schedule: Q01DX001 (ip), vehicle: other 86 % of control

NC(N)=N/N=C\CCC/C=N/N=C(N)N
inactive: dose: 15.0 mg/kg/injection, schedule: Q01DX Z (ip), vehicle: saline 98 % of control | dose: 30.0 mg/kg/injection, schedule: Q01DX Z (ip), vehicle: saline 97 % of control | dose: 60.0 mg/kg/injection, schedule: Q01DX Z (ip), vehicle: saline 105 % of control | dose: 60.0 mg/kg/injection, schedule: Q01DX Z (oral), vehicle: other 95 % of control | dose: 120.0 mg/kg/injection, schedule: Q01DX Z (ip), vehicle: saline 94 % of control | dose: 120.0 mg/kg/injection, schedule: Q01DX Z (oral), vehicle: other 100 % of control | dose: 240.0 mg/kg/injection, schedule: Q01DX Z (oral), vehicle: other 97 % of control | dose: 480.0 mg/kg/injection, schedule: Q01DX Z (oral), vehicle: other 102 % of control

COc1ccc(NC(=O)Nc2c(C)cccc2C)cc1
inactive: dose: 100.0 mg/kg/injection, schedule: Q01DX009 (ip), vehicle: gum acacia 97 % of control | dose: 100.0 mg/kg/injection, schedule: Q04DX003 (ip), vehicle: gum acacia 97 % of control | dose: 200.0 mg/kg/injection, schedule: Q01DX009 (ip), vehicle: gum acacia 97 % of control | dose: 200.0 mg/kg/injection, schedule: Q04DX003 (ip), vehicle: gum acacia 92 % of control | dose: 400.0 mg/kg/injection, schedule: Q01DX009 (ip), vehicle: gum acacia 92 % of control | dose: 400.0 mg/kg/injection, schedule: Q04DX003 (ip), vehicle: gum acacia 91 % of control

C[C@]12CC[C@H]3[C@@H](CC=C4C[C@@H](O)CC[C@@]43C)[C@@H]1CC[C@@H]2N
inactive: dose: 100.0 mg/kg/injection, schedule: Q01DX001 (sc), vehicle: steriod suspending solution 98 % of control | dose: 100.0 mg/kg/injection, schedule: Q04DX002 (ip), vehicle: saline with Tween-80 105 % of control | dose: 200.0 mg/kg/injection, schedule: Q01DX001 (sc), vehicle: steriod suspending solution 101 % of control | dose: 200.0 mg/kg/injection, schedule: Q04DX002 (ip), vehicle: saline with Tween-80 112 % of control | dose: 400.0 mg/kg/injection, schedule: Q01DX001 (sc), vehicle: steriod suspending solution 101 % of control | dose: 400.0 mg/kg/injection, schedule: Q04DX002 (ip), vehicle: saline with Tween-80 118 % of control

Cc1ccc(S(=O)(=O)Nc2ccccc2OS(=O)(=O)c2ccc(C)cc2)cc1
inactive: [8] 95 % of control | [6] 106 % of control | [3] 101 % of control | [9] 89 % of control | [7] 108 % of control | [4] 100 % of control | [10] 93 % of control | [11] 106 % of control | [5] 97 % of control

CC1(C)NC(=S)NC1=S
inactive: dose: 100.0 mg/kg/injection, schedule: Q01DX009 (ip), vehicle: alcohol 103 % of control | dose: 100.0 mg/kg/injection, schedule: Q04DX002 (ip), vehicle: Klucel (hydroxypropylcellulose) (HPC) 89 % of control | dose: 200.0 mg/kg/injection, schedule: Q01DX009 (ip), vehicle: alcohol 101 % of control | dose: 200.0 mg/kg/injection, schedule: Q04DX002 (ip), vehicle: Klucel (hydroxypropylcellulose) (HPC) 89 % of control | dose: 400.0 mg/kg/injection, schedule: Q04DX002 (ip), vehicle: Klucel (hydroxypropylcellulose) (HPC) 96 % of control

CC(C)N1C(=O)NC(=O)C12CCN(Cc1ccccc1)CC2
inactive: dose: 100.0 mg/kg/injection, schedule: Q01DX001 (ip), vehicle: carboxymethylcellulose (CMC) 101 % of control | dose: 200.0 mg/kg/injection, schedule: Q01DX001 (ip), vehicle: carboxymethylcellulose (CMC) 98 % of control | dose: 400.0 mg/kg/injection, schedule: Q01DX001 (ip), vehicle: carboxymethylcellulose (CMC) 95 % of control

COc1nc(=O)n(C2CCCO2)cc1C (stereo not drawn)
inactive: [1] 95 % of control | [2] 95 % of control | dose: 200.0 mg/kg/injection, schedule: Q01DX001 (ip), vehicle: saline 104 % of control | dose: 400.0 mg/kg/injection, schedule: Q01DX001 (ip), vehicle: saline 98 % of control

O=C1CCc2ccccc2C(=O)C1c1ccc(Cl)cc1 (stereo not drawn)
inactive: [12] 90 % of control | [13] 97 % of control | [14] 93 % of control

CCOc1ccc(NC(=O)C(Br)C(Br)c2ccccc2)cc1 (stereo not drawn)
inactive: [6] 100 % of control | [7] 96 % of control | [11] 91 % of control

ClC(Cl)c1ccccc1
inactive: [12] 98 % of control | [13] 95 % of control | [14] 87 % of control

Cc1c(O)ccc2c1OCC2=O
inactive: [8] 91 % of control | [3] 104 % of control | [9] 94 % of control | [4] 98 % of control | [10] 98 % of control | [5] 93 % of control

C#CCOCCCC(=O)O
inactive: dose: 100.0 mg/kg/injection, schedule: Q01DX009 (ip), vehicle: saline 91 % of control | dose: 200.0 mg/kg/injection, schedule: Q01DX009 (ip), vehicle: saline 89 % of control

Reference: PubChem BioAssay AID248 (DTP/NCI, 2004)
